# Results taken from patent US20250353848A1, “HETEROCYCLIC PAD4 INHIBITORS” (Celgene Corporation, priority 2022, published 2025).
# pIC50: −log10 of the molar value.
# How the values were obtained:
# [1] = target: T1, hPAD4 enzyme (Homo sapiens, UniProt Q9UM07); test: RFMS Assay 1 (rapid-fire mass spectrum PAD4 inhibition assay, BAEE substrate); type: biochemical; conditions: 5 nM hPAD4 enzyme, 250 μM BAEE, 30 mins compound and enzyme preincubation at 37° C., 90 min enzyme/substrate reaction
# Method in brief: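 Human PAD4 (5 nM) preincubated 30 min at 37 °C with compound (top 50 μM, 0.5% DMSO), then 250 μM BAEE for 90 min at 37 °C in pH 7.5 HEPES with 50 μM calcium, 5 μM TPEN, 1 mM DTT. Product derivatized with phenyl glyoxal; citrulline product quantified by RapidFire MS/MS MRM, normalized to internal standard.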
# [2] = target: T1, hPAD4 enzyme; test: RFMS Assay 2 (rapid-fire mass spectrum PAD4 inhibition assay, peptide substrate); type: biochemical; conditions: 35 nM recombinant human PAD4, substrate TSTGGRQGSHH, room temperature for 30 minutes; read-out: human PAD4 (hPAD4) IC50, RFMS Assay 2
# Method in brief: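 Recombinant human PAD4 (35 nM) reacted 30 min at room temperature with 500 µM peptide TSTGGRQGSHH in pH 7.4 HEPES, 200 mM NaCl, 2 mM CaCl2, 5 mM DTT, 1.2% DMSO. Quenched with formic acid; substrate and citrullinated product quantified by RapidFire MRM mass spectrometry.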
# T1 sequence (Q9UM07 whole entry): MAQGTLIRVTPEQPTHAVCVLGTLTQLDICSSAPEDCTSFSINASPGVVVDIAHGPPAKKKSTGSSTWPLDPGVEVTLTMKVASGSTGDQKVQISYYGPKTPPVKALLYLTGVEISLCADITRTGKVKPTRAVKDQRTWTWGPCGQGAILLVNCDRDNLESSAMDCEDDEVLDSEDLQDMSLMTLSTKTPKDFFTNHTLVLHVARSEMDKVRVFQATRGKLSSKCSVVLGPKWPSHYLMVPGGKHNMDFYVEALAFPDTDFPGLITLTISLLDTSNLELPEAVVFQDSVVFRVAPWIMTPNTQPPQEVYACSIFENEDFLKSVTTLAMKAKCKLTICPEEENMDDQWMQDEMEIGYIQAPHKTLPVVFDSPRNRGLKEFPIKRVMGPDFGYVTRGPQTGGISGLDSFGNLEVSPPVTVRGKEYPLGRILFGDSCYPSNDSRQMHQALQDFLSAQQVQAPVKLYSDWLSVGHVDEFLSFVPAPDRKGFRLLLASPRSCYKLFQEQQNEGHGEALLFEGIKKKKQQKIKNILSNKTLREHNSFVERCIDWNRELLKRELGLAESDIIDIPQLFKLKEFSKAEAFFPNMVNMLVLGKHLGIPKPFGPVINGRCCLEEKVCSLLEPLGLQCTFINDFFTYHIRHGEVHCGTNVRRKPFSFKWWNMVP
SMILES,pIC50 [1],pIC50 [2]
"C[C@@H](N)CN1CCc2nc3c(cc2C1=O)nc(-c1cc2ccccc2n1CC1CC1)n3C [Example 24, (R)-7-(2-aminopropyl)-2-(1-(cyclopropylmethyl)-1H-indol-2-yl)-3-methyl-3,5,6,7-tetrahydro-8H-imidazo[4,5-b][1,6]naphthyridin-8-one]",7.00 to 7.96,6.00 to 6.30
"COc1cccc2cc(-c3nc4cc5c(nc4n3C)CCN(C[C@H](N)CF)C5=O)n(Cc3cc(C)no3)c12 [Example 12, (S)-7-(2-amino-3-fluoropropyl)-2-(7-methoxy-1-((3-methylisoxazol-5-yl)methyl)-1H-indol-2-yl)-3-methyl-3,5,6,7-tetrahydro-8H-imidazo[4,5-b][1,6]naphthyridin-8-one]",6.30 to 7.00,6.30 to 7.00
"Cn1c(-c2cc3cccc(OC(F)Cn4cncc4F)c3n2CC2CC2)nc2cc3c(nc21)CCN(C[C@H](N)CF)C3=O (single isomer, unassigned) [Example 75b]",≥ 8.00,7.00 to 7.96
"COc1cccc2cc(-c3nc4cc5c(nc4n3C)CCN(C[C@H](N)CF)C5=O)n(CC3CC3)c12 [Example 1, (S)-7-(2-amino-3-fluoropropyl)-2-(1-(cyclopropylmethyl)-7-methoxy-1H-indol-2-yl)-3-methyl-3,5,6,7-tetrahydro-8H-imidazo[4,5-b][1,6]naphthyridin-8-one]",6.30 to 7.00,6.00 to 6.30
"Cn1c(-c2cc3ccccc3n2CC2CC2)nc2cc3c(nc21)CCN(C[C@H](N)CF)C3=O [Example 20, (S)-7-(2-amino-3-fluoropropyl)-2-(1-(cyclopropylmethyl)-1H-indol-2-yl)-3-methyl-3,5,6,7-tetrahydro-8H-imidazo[4,5-b][1,6]naphthyridin-8-one]",< 6.00,6.00 to 6.30
"Cn1c(-c2cc3cccc(OC[C@@H]4CNC(=O)O4)c3n2CC2CC2)nc2cc3c(nc21)CCN(C[C@H](N)CF)C3=O [Example 34, (S)-5-(((2-(7-((S)-2-amino-3-fluoropropyl)-3-methyl-8-oxo-5,6,7,8-tetrahydro-3H-imidazo[4,5-b][1,6]naphthyridin-2-yl)-1-(cyclopropylmethyl)-1H-indol-7-yl)oxy)methyl)oxazolidin-2-one]",≥ 8.00,7.00 to 7.96
"COc1cccc2cc(-c3nc4cc5c(nc4n3C)CCN(C[C@H](N)CF)C5=O)n(Cc3ccno3)c12 [Example 7, (S)-7-(2-amino-3-fluoropropyl)-2-(1-(isoxazol-5-ylmethyl)-7-methoxy-1H-indol-2-yl)-3-methyl-3,5,6,7-tetrahydro-8H-imidazo[4,5-b][1,6]naphthyridin-8-one]",7.00 to 7.96,6.30 to 7.00
"CC(Oc1cccc2cc(-c3nc4cc5c(nc4n3C)CCN(C[C@H](N)CF)C5=O)n(CC3CC3)c12)c1cc[nH]n1 (single isomer, unassigned) [Example 49a]",7.00 to 7.96,7.00 to 7.96
"Cc1nnc(CCOc2cccc3cc(-c4nc5cc6c(nc5n4C)CCN(C[C@H](N)CF)C6=O)n(CC4CC4)c23)o1 [Example 54, (S)-7-(2-amino-3-fluoropropyl)-2-(1-(cyclopropylmethyl)-7-(2-(5-methyl-1,3,4-oxadiazol-2-yl)ethoxy)-1H-indol-2-yl)-3-methyl-3,5,6,7-tetrahydro-8H-imidazo[4,5-b][1,6]naphthyridin-8-one]",7.00 to 7.96,7.00 to 7.96
"Cn1c(-c2cc3cccc(OCCc4ccon4)c3n2CC2CC2)nc2cc3c(nc21)CCN(C[C@H](N)CF)C3=O [Example 46, (S)-7-(2-amino-3-fluoropropyl)-2-(1-(cyclopropylmethyl)-7-(2-(isoxazol-3-yl)ethoxy)-1H-indol-2-yl)-3-methyl-3,5,6,7-tetrahydro-8H-imidazo[4,5-b][1,6]naphthyridin-8-one]",≥ 8.00,7.00 to 7.96
"COc1cccc2cc(-c3nc4cc5c(nc4n3C)CCN(C[C@H](N)CF)C5=O)n(Cc3ncc(C)o3)c12 [Example 11, (S)-7-(2-amino-3-fluoropropyl)-2-(7-methoxy-1-((5-methyloxazol-2-yl)methyl)-1H-indol-2-yl)-3-methyl-3,5,6,7-tetrahydro-8H-imidazo[4,5-b][1,6]naphthyridin-8-one]",6.30 to 7.00,6.30 to 7.00
"COCCn1c(-c2nc3cc4c(nc3n2C)CCN(C[C@H](N)CF)C4=O)cc2cccc(OC)c21 [Example 2, (S)-7-(2-amino-3-fluoropropyl)-2-(7-methoxy-1-(2-methoxyethyl)-1H-indol-2-yl)-3-methyl-3,5,6,7-tetrahydro-8H-imidazo[4,5-b][1,6]naphthyridin-8-one]",< 6.00,< 6.00
"CC(Cc1cnco1)Oc1cc(F)cc2cc(-c3nc4cc5c(nc4n3C)CCN(C[C@H](N)CF)C5=O)n(CC3CC3)c12 (single isomer, unassigned) [Example 65a]",≥ 8.00,6.30 to 7.00
"COc1cccc2cc(-c3nc4cc5c(nc4n3C)CCN(C[C@H](N)CF)C5=O)n(Cc3ncco3)c12 [Example 8, (S)-7-(2-amino-3-fluoropropyl)-2-(7-methoxy-1-(oxazol-2-ylmethyl)-1H-indol-2-yl)-3-methyl-3,5,6,7-tetrahydro-8H-imidazo[4,5-b][1,6]naphthyridin-8-one]",6.00 to 6.30,6.00 to 6.30
"Cn1c(-c2cc3cccc(OC(F)Cn4ccnc4)c3n2CC2CC2)nc2cc3c(nc21)CCN(C[C@H](N)CF)C3=O (single isomer, unassigned) [Example 74a]",≥ 8.00,7.00 to 7.96
"COc1cc(F)cc2cc(-c3nc4cc5c(nc4n3C)CCN(C[C@H](N)CF)C5=O)n(Cc3ccno3)c12 [Example 22, (S)-7-(2-amino-3-fluoropropyl)-2-(5-fluoro-1-(isoxazol-5-ylmethyl)-7-methoxy-1H-indol-2-yl)-3-methyl-3,5,6,7-tetrahydro-8H-imidazo[4,5-b][1,6]naphthyridin-8-one]",6.30 to 7.00,6.30 to 7.00
"Cn1c(-c2cc3cccc(OCCn4ccnc4)c3n2CC2CC2)nc2cc3c(nc21)CCN(C[C@H](N)CF)C3=O [Example 44, (S)-2-(7-(2-(1H-imidazol-1-yl)ethoxy)-1-(cyclopropylmethyl)-1H-indol-2-yl)-7-(2-amino-3-fluoropropyl)-3-methyl-3,5,6,7-tetrahydro-8H-imidazo[4,5-b][1,6]naphthyridin-8-one]",≥ 8.00,7.00 to 7.96
"CC(Oc1cccc2cc(-c3nc4cc5c(nc4n3C)CCN(C[C@H](N)CF)C5=O)n(CC3CC3)c12)c1cc[nH]n1 (single isomer, unassigned) [Example 49b]",6.30 to 7.00,6.30 to 7.00
"C[C@@H](COc1cccc2cc(-c3nc4cc5c(nc4n3C)CCN(C[C@H](N)CF)C5=O)n(CC3CC3)c12)n1cnc(F)c1 [Example 86, 7-((S)-2-amino-3-fluoropropyl)-2-(1-(cyclopropylmethyl)-7-((S)-2-(4-fluoro-1H-imidazol-1-yl)propoxy)-1H-indol-2-yl)-3-methyl-3,5,6,7-tetrahydro-8H-imidazo[4,5-b][1,6]naphthyridin-8-one]",≥ 8.00,7.00 to 7.96
"Cn1c(-c2cc3cccc(OC(F)Cn4ccnc4)c3n2CC2CC2)nc2cc3c(nc21)CCN(C[C@H](N)CF)C3=O (single isomer, unassigned) [Example 74b]",≥ 8.00,7.00 to 7.96
